# From patent US11331364B2, “Use for JNK inhibitor molecules for treatment of various diseases” (Xigen Inflammation Ltd., priority 2014, dated 2022)
# Square brackets hold non-standard residues; d marks the D form. Peptide text beside a SMILES is read from it.
# Key:
# [1] = Stability (half-life) in human serum, UPLC-MS; settings: human serum (10 and 50% in PBS; FIG. 5: 50%), 0.1 mM peptide
# Protocol: The experiment was performed as described by Tugyi et al. (Proc Natl Acad Sci USA, 2005, 413-418). The remaining intact peptide was quantified by UPLC-MS.
# [2] = system: Adriamycin-induced nephropathy in rats; assay: Adriamycin-induced nephropathy; type: in vivo, rat; settings: 2 mg/kg IV Day 0
# From the text: Adriamycin treatment induces glomerular disease in rat and mice mimicking human focal segmental and glomerular sclerosis (FSGS). In this model, tubular and interstitial inflammatory lesions occur during the disease course, partly due to heavy proteinuria. In the absence of therapy, kidney disease progresses to terminal renal failure within eight weeks. Podocyte injury is one of the initial steps in the sequences leading to glomerulosclerosis. The aim of the study was to investigate whether a JNK inhibitor could prevent the development of renal lesions and the renal failure.
# 30 male Sprague-Dawley rats (Charles River) were used in this study (divided into 3 groups of ten rats). Nephropathy was induced by a single intravenous injection of Adriamycin […] on Day 0. The JNK inhibitor of SEQ ID NO: 172 (2 mg/kg; in NaCl 0.9%) or vehicle was administered intravenously into the tail vein on Day 0. The administration volume was 0.2 ml.
# Retroorbital blood was collected at Days 7, 14, 28, 42 and 56 from 4 rats per group. Serum creatinine concentrations, blood urea and protidemia were measured using appropriate kits from Advia Chemistry 1650 (Bayer Healthcare AG, Leverkusen, Germany).
# Two rats per group were sacrificed on Days 7, 14, 28, 42 and 56 after anesthesia. After animal sacrifice, both kidneys were collected. For histopathological examination fixed tissue specimens were dehydrated in graded alcohol solutions, cleared in toluene, and embedded in paraffin. Sections (4 µm) were stained with periodic acid-Schiff (PAS), and Masson's trichrome staining was performed to detect collagen deposition. Glomerular and tubulointerstitial sclerosis were quantified under microscope.
# healthy male volunteers = assay: Phase I safety and tolerability of single and repeated instillations; type: in vivo, human
# Protocol: XG-104 was prepared as solution for instillations (in NaCl 0.9%). NaCl 0.9% served as placebo. A total of 49 subjects were included in this study, 28 in the “Single dose part” of this study and 21 in the “Multiple dose part” of this study. In the single dose part, the 28 subjects included were randomised between one of the 5 groups: 5 subjects in each of the 4 XG-104 groups (0.1 mg, 0.2 mg, 0.4 mg, 0.8 mg) (0.2, 0.4, 0.8 and 1.6%, respectively) and 8 subjects in the placebo group. In the multiple dose part, the 21 subjects included were randomised between one of the 4 groups: 5 subjects in each of the 3 XG-104 groups (0.1 mg, 0.2 mg, 0.4 mg) and 6 subjects in the placebo group. All subjects completed the study.
# In the “Single dose part” of this study, single topical doses of 0.1, 0.2, 0.4 and 0.8 mg (0.2, 0.4, 0.8 and 1.6%, respectively) of XG-104 were tested. A single administration of XG-104 or placebo was performed on day 1 (D1) (one drop in the right eye). In the single dose part, subjects were hospitalized for approximately 36 h, namely from day −1 (D−1) evening to D2 morning. On day 3 an ambulatory visit was performed and the study ended with a visit at D4.
# In the “Multiple dose part” of this study, three dose levels were tested. Doses were chosen according to the results of the single dose part as follows: first group: 0.1 mg (0.2%), second group: 0.2 mg (0.4%), and third group: 0.4 mg (0.8%). XG-104 or placebo was administered tid (“ter in die”—three times daily), each time 1 drop in the right eye, from D1 to D21. The administration took place at around 8 a.m., 12 a.m. and 8 p.m. In the multiple dose part, subjects were hospitalized from D−1 evening to D22 morning, whereby the end of the study was a visit at D36 (±2). For more flexibility, subjects had the possibility to perform some visits in ambulatory. In that case visits were the following: hospitalization for approximately 36 h, D−1 evening to D2 morning, ambulatory visits from D2 to D7, hospitalization for approximately 36 h, D7 evening to D9 morning, ambulatory visits from D9 to D14, hospitalization for approximately 36 h, D14 evening to D16 morning, ambulatory visits from D16 to D20, and hospitalization for approximately 36 h, D20 evening to D22 morning. The end of the study was a visit at D36 (±2), accordingly.
# The safety parameters evaluated included: physical examination; vital signs (BP, PR); 12-lead ECG (electrocardiogram); fundus of the eye, intraocular pressure, slit lamp examination, best-corrected visual acuity, redness; Schirmer's tear test, TBUT (tear film break-up time); clinical laboratory tests (haematology, haemostasis, clinical chemistry and urinalysis); adverse events; and assessment of tolerability.
# hJNK2 = hJNK2 (Homo sapiens, UniProt P45984); assay: hJNK2 | IC50; settings: read-out: hJNK2 | IC50
# Sequence of hJNK2 (P45984 whole entry, looked up, the tested form may be a part): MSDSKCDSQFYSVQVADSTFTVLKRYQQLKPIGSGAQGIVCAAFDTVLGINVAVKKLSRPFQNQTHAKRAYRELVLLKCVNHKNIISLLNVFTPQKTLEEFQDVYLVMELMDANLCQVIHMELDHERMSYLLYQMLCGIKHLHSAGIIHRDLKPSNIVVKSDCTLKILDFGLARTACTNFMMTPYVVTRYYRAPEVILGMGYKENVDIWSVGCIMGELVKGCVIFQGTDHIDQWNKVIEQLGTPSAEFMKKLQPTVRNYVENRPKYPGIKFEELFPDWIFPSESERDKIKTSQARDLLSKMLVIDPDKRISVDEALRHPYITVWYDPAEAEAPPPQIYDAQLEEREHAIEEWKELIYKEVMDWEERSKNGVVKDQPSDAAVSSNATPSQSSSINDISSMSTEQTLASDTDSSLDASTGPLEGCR
# Procedure, shortened: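 JNK inhibitors tested as fusion proteins of a JNK-inhibitory (poly)peptide and a transporter sequence; IC50 reported in the nM range with SEM and number of experiments.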
# [3] = multiple dose 0.1 mg (0.2%) tid
# [4] = multiple dose 0.2 mg (0.4%) tid
# [5] = multiple dose 0.4 mg (0.8%) tid
structure (smiles),measurement,setting,value
"CC(C)C[C@H](NC(=O)[C@H](CC(N)=O)NC(=O)[C@H](CC(C)C)NC(=O)[C@@H](NC(=O)[C@@H](C)NC(=O)[C@@H]1CCCN1C(=O)[C@H](CCCNC(=N)N)NC(=O)[C@@H](CCCCN)NC(=O)[C@@H]1CCCN1C(=O)[C@H](CCCNC(=N)N)NC(=O)[C@@H](CCCNC(=N)N)NC(=O)[C@H](CCCNC(=N)N)NC(=O)[C@H](CCCNC(=N)N)NC(=O)[C@H](CCC(N)=O)NC(=O)[C@@H](CCCNC(=N)N)NC(=O)[C@H](CCCNC(=N)N)NC(=O)[C@H](CCCCN)NC(=O)[C@H](CCCCN)NC(=O)[C@H](N)CCCNC(=N)N)[C@@H](C)O)C(=O)N[C@H](Cc1ccccc1)C(N)=O [SEQ ID NO: 172, rKKRrQRRrRPkRPaTLNLf] (H-[dR]KKR[dR]QRR[dR]RP[dK]RP[dA]TLNL[dF]-NH2; N-terminus assumed)",time until completely degraded,[1],14 days
same,"kidney histopathology (PAS, Masson trichrome)",[2]; Day 8,relatively normal appearance
same,"kidney histopathology (PAS, Masson trichrome)",[2]; Day 56,few focal and segmental glomerulosclerosis and tubulointerstitial fibrosis
same,urea serum level,[2]; throughout the course of the disease,below 10 mmol/l
same,"conjunctival hyperaemia, left eye, unlikely related (number)",healthy male volunteers; [3],2
same,"conjunctival hyperaemia, right eye, unlikely related (number)",healthy male volunteers; [3],6
same,"conjunctivas, right eye, probably related (number)",healthy male volunteers; [3],2
same,"punctate keratitis, left eye, unlikely related (number)",healthy male volunteers; [3],2
same,"punctate keratitis, left eye, unrelated (number)",healthy male volunteers; [3],1
same,"punctate keratitis, right eye, unlikely related (number)",healthy male volunteers; [3],6
same,"conjunctival hyperaemia, left eye, unlikely related (number)",healthy male volunteers; [4],3
same,"conjunctival hyperaemia, right eye, unlikely related (number)",healthy male volunteers; [4],5
same,"eyelid irritation, right eye, probably related (number)",healthy male volunteers; [4],1
same,"punctate keratitis, left eye, unlikely related (number)",healthy male volunteers; [4],1
same,"punctate keratitis, left eye, unrelated (number)",healthy male volunteers; [4],4
same,"punctate keratitis, right eye, unlikely related (number)",healthy male volunteers; [4],6
same,"punctate keratitis, right eye, unrelated (number)",healthy male volunteers; [4],1
same,"conjunctival hyperaemia, left eye, unlikely related (number)",healthy male volunteers; [5],2
same,"conjunctival hyperaemia, right eye, unlikely related (number)",healthy male volunteers; [5],10
same,"conjunctivitis, right eye, unlikely related (number)",healthy male volunteers; [5],1
same,"punctate keratitis, left eye, unlikely related (number)",healthy male volunteers; [5],2
same,"punctate keratitis, right eye, unlikely related (number)",healthy male volunteers; [5],5
same,"clinical examination, biological parameters, vital signs or ECG parameters",healthy male volunteers; multiple dose part,No clinically relevant findings
same,intensity of TEAEs,healthy male volunteers; multiple dose part,mild to moderate
same,serious adverse events,healthy male volunteers; multiple dose part,No serious adverse events
same,TEAEs experienced after XG-104 administration (number),"healthy male volunteers; multiple dose part, tid D1 to D21, 0.1-0.4 mg",61
same,tolerability,"healthy male volunteers; repeated dose t.i.d. 0.1 mg, 0.2 mg, 0.4 mg",well tolerated
same,"eye pruritus, right eye, unrelated (number)",healthy male volunteers; single dose 0.1 mg (0.2%),1
same,"punctate keratitis, right eye, unrelated (number)",healthy male volunteers; single dose 0.1 mg (0.2%),2
same,tolerability,"healthy male volunteers; single dose 0.1 mg, 0.2 mg, 0.4 mg",well tolerated
same,"conjunctival hyperaemia, right eye, unrelated (number)",healthy male volunteers; single dose 0.2 mg (0.4%),1
same,"punctate keratitis, right eye, unrelated (number)",healthy male volunteers; single dose 0.2 mg (0.4%),2
same,"punctate keratitis, right eye, unrelated (number)",healthy male volunteers; single dose 0.4 mg (0.8%),2
same,TEAEs right eye probably related to study drug (number),healthy male volunteers; single dose 0.8 mg (1.6%),3
same,"conjunctival hyperaemia, right eye, probably related (number)",healthy male volunteers; single dose 0.8 mg (1.6%),1
same,"conjunctivitis, right eye, probably related (number)",healthy male volunteers; single dose 0.8 mg (1.6%),2
same,"punctate keratitis, right eye, unrelated (number)",healthy male volunteers; single dose 0.8 mg (1.6%),1
same,tolerability,healthy male volunteers; single dose 0.8 mg (1.6%),rather well tolerated
same,"clinical examination, vital signs or ECG parameters",healthy male volunteers; single dose part,No clinically relevant findings
same,intensity of TEAEs,healthy male volunteers; single dose part,mild
same,serious adverse events,healthy male volunteers; single dose part,No serious adverse events
same,TEAEs experienced after XG-104 administration (number),"healthy male volunteers; single dose part, 0.1-0.8 mg, one drop right eye",21
same,IC50,hJNK2,54.7 nM
